# In ChEMBL document CHEMBL3407440, “Monocarbonyl analogs of curcumin inhibit growth of antibiotic sensitive and resistant strains of Mycobacterium tuberculosis” (Eur J Med Chem, 2015):
# Tested on: Mycobacterium tuberculosis
# Assay: Antituberculosis activity against rifampicin-resistant Mycobacterium tuberculosis H37Rv assessed as growth inhibition after 72 hrs by liquid culture assay
# Format: functional, organism-based
row,SMILES,IC50 [µM]
1,CN1C/C(=C\c2ccccn2)C(=O)/C(=C/c2ccccn2)C1,7
2,O=C1/C(=C/c2ccccc2F)CNC/C1=C\c1ccccc1F,20
